Our source for the Kd values is article PMC9074879, “Solubilization, purification, and ligand binding characterization of G protein-coupled receptor SMO in native membrane bilayer using styrene maleic acid copolymer” (PeerJ, 2022).

The target of this assay is T1, Smoothened (SMO) (Homo sapiens, UniProt Q99835).
T1 construct: human SMO transmembrane domain (residues 190-555) fused with N-terminal 10-His tag and thermostabilized apocytochrome b562RIL, in SMA-nanodiscs
T1 sequence (Q99835 190-555): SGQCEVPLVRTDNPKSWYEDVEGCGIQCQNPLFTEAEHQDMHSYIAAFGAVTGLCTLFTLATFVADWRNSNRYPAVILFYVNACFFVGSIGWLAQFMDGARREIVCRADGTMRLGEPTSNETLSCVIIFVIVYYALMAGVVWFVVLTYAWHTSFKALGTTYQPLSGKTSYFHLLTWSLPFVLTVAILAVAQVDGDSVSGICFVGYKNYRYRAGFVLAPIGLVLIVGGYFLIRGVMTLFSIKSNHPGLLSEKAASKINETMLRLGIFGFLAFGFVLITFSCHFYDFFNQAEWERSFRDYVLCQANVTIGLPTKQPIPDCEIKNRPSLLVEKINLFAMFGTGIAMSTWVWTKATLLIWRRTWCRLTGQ
Briefly: ligand-observed 1D 1H NMR titration (line broadening), purified SMO in SMA-nanodiscs. Format: binding.

For the molecule `Cc1nn(-c2ccccc2)c(C)c1/C=N/N1CCN(Cc2ccccc2)CC1` [SANT-1], the Kd was found to be 2.3 ± 1.2 nM.
The result for `CN[C@H]1CC[C@H](N(Cc2cccc(-c3ccncc3)c2)C(=O)c2sc3ccccc3c2Cl)CC1` [SAG] reads 15.9 ± 4.4 nM.
